Laboratory results as given in article PMC4741607 (Oncotarget, 2015).
Read-outs that look alike come from different tables or passages of the source. Blank lines part the entries; values can stand above or below the compound they belong to.

Experiments:
H3255 EGFR L858R = assay: Colony formation assay, H3255; format: cell-based, human
HCC827 EGFR Del 19 = assay: Colony formation assay, HCC827; format: cell-based, human
H1975 EGFR (L858R/T790M) = assay: Colony formation assay, H1975; format: cell-based, human
H1975 (EGFR L858R/T790M) = assay: Proliferation (CellTiter-Glo), H1975; format: cell-based, human; details: Homo sapiens
H23 (EGFR wt) = assay: Proliferation (CellTiter-Glo), H23; format: cell-based, human; details: Homo sapiens
H460 (EGFR wt) = assay: Proliferation (CellTiter-Glo), H460; format: cell-based, human; details: Homo sapiens
PC-9 (EGFR Del19) = assay: Proliferation (CellTiter-Glo), PC-9; format: cell-based, human; details: Homo sapiens
A431 (EGFR wt) = assay: Proliferation (CellTiter-Glo), A431; format: cell-based, human; details: Homo sapiens
HCC827 (EGFR Del19) = assay: Proliferation (CellTiter-Glo), HCC827; format: cell-based, human; details: Homo sapiens
H3255 (EGFR L858R) = assay: Proliferation (CellTiter-Glo), H3255; format: cell-based, human; details: Homo sapiens
A549 (EGFR wt) = assay: Proliferation (CellTiter-Glo), A549; format: cell-based, human; details: Homo sapiens
H358 (EGFR wt) = assay: Proliferation (CellTiter-Glo), H358; format: cell-based, human; details: Homo sapiens
H2122 (EGFR wt) = assay: Proliferation (CellTiter-Glo), H2122; format: cell-based, human; details: Homo sapiens
PC-9 EGFR del 19 = assay: Colony formation assay, PC-9; format: cell-based, human
PC-9 cells = assay: Cell cycle analysis (FACS), PC-9; format: cell-based, human; details: PC-9, 24h, 0.3 μM
HCC827 cells = assay: Cell cycle analysis (FACS), HCC827; format: cell-based, human; details: HCC827, 24 h, 0.3 μM
H460 cells = assay: Cell cycle analysis (FACS), H460; format: cell-based, human; details: H460, 48h, 0.3 μM
H3255 cells = assay: Cell cycle analysis (FACS), H3255; format: cell-based, human; details: H3255, 24h, 0.3 μM
PC-9 xenograft = PC-9 xenograft mouse model; format: in vivo, Nude (Nu/Nu) mice; details: PC-9 xenograft, 25 mg/kg/day QD oral gavage
Protocol: (§1) Tumor diameter was measured 3 times weekly. Tumor volumes (V) were calculated by the equation (V = length × width × width/2). ALL experiments and procedures followed the guidelines of the Institutional Animal Care and Use Committees of National Institue of Biological Sciences, Beijing.

H1975 xenograft = H1975 xenograft mouse model; format: in vivo, Nude (Nu/Nu) mice; details: 25 mg/kg/day QD oral gavage
Protocol: as §1

Structure (SMILES): C=CC(=O)Nc1cc(Nc2nccc(-c3cn(C)c4ccccc34)n2)c(OC)cc1N(C)CCN(C)C [AZD-9291, AZD9291]
EC50 (H3255 EGFR L858R; Homo sapiens, NCI-H3255, 240 h, read-out: EC50 colony formation, H3255, 10 days): 5.59 nM
EC50 (H3255 EGFR L858R; read-out: EC50 colony formation, H3255, 10 days): 5.5 nM
EC50 (HCC827 EGFR Del 19; Homo sapiens, HCC827, 240 h, read-out: EC50 colony formation, HCC827, 10 days): 1.23 nM
EC50 (HCC827 EGFR Del 19; read-out: EC50 colony formation, HCC827, 10 days): 1.2 nM
EC50 (H1975 EGFR (L858R/T790M); Homo sapiens, NCI-H1975, 240 h, read-out: EC50 colony formation, H1975, 10 days): 118 nM
EC50 (H1975 EGFR (L858R/T790M); read-out: EC50 colony formation, H1975, 10 days): 118 nM
GI50 (H23 (EGFR wt); 72 h): 4200 nM
GI50 (H460 (EGFR wt); NCI-H460, 72 h): 4000 nM
GI50 (PC-9 (EGFR Del19); 72 h): 3 nM
GI50 (HCC827 (EGFR Del19); HCC827, 72 h): 4 nM
GI50 (H3255 (EGFR L858R); NCI-H3255, 72 h): 31 nM
GI50 (A549 (EGFR wt); A549, 72 h): 5000 nM
GI50 (H358 (EGFR wt); NCI-H358, 72 h): 9400 nM
GI50 (H2122 (EGFR wt); NCI-H2122, 72 h): 7600 nM
EC50 (PC-9 EGFR del 19; Homo sapiens, 240 h, read-out: EC50 colony formation, PC-9, 10 days): 2.51 nM

EC50 (H3255 EGFR L858R; Homo sapiens, NCI-H3255, 240 h, H3255, 10 days, read-out: EC50 colony formation): 211 nM
EC50 (HCC827 EGFR Del 19; HCC827, 10 days, read-out: EC50 colony formation): 11 nM
EC50 (HCC827 EGFR Del 19; Homo sapiens, HCC827, 240 h, HCC827, 10 days, read-out: EC50 colony formation): 11.5 nM
EC50 (H1975 EGFR (L858R/T790M); Homo sapiens, NCI-H1975, 240 h, H1975, 10 days, read-out: EC50 colony formation): 606 nM
GI50 (H1975 (EGFR L858R/T790M); NCI-H1975, H1975, EGFR L858R/T790M, 72 hours, read-out: GI50): 440 nM
GI50 (H460 (EGFR wt); NCI-H460, H460, EGFR wt, 72 hours, read-out: GI50): 2500 nM
GI50 (PC-9 (EGFR Del19); PC-9, EGFR Del19, 72 hours, read-out: GI50): 130 nM
GI50 (A431 (EGFR wt); A-431, A431, EGFR wt, 72 hours, read-out: GI50): 1200 nM
GI50 (HCC827 (EGFR Del19); HCC827, EGFR Del19, 72 hours, read-out: GI50): 97 nM
GI50 (H3255 (EGFR L858R); NCI-H3255, H3255, EGFR L858R, 72 hours, read-out: GI50): 250 nM
GI50 (A549 (EGFR wt); A549, EGFR wt, 72 hours, read-out: GI50): 830 nM
GI50 (H358 (EGFR wt); NCI-H358, H358, EGFR wt, 72 hours, read-out: GI50): 4800 nM
GI50 (H2122 (EGFR wt); NCI-H2122, H2122, EGFR wt, 72 hours, read-out: GI50): 1400 nM
EC50 (PC-9 EGFR del 19; Homo sapiens, 240 h, PC-9, 10 days, read-out: EC50 colony formation): 56.2 nM
EC50 (PC-9 EGFR del 19; PC-9, 10 days, read-out: EC50 colony formation): 56 nM
Structure (SMILES): C=CC(=O)Nc1cccc(Nc2nc(Nc3ccc(N4CCN(C(C)=O)CC4)cc3OC)ncc2C(F)(F)F)c1 [CO-1686]
%G0-G1 (PC-9 cells): 85.49%
%G2-M (PC-9 cells): 8.97%
%G0-G1 (HCC827 cells): 83.96%
%G2-M (HCC827 cells): 3.62%
GI50 (H23 (EGFR wt); H23, EGFR wt, 72 hours, read-out: GI50): 1400 nM
%G0-G1 (H460 cells): 51.62%
%G2-M (H460 cells): 8.78%
%G0-G1 (H3255 cells): 81.24%
%G2-M (H3255 cells): 9.84%

Structure (SMILES): COc1cc2ncnc(Nc3ccc(F)c(Cl)c3)c2cc1OCCCN1CCOCC1 [Gefitinib]
anti-tumor activity (tumor growth) (PC-9 xenograft): almost completely suppressed the tumor growth
anti-tumor activity (tumor growth) (H1975 xenograft): completely lost the anti-tumor efficacy
